The target of test [1] is wild type MLL1 four-member complex (MLL1-4C) (Homo sapiens, UniProt P61964). In words: MLL1 LC-MS assay (SAH production). In kind it is biochemical. As to conditions: read-out: (b) MLL LCMS Peptide Val.v.1 Qualified AC50. The procedure:
The compounds of the present disclosure were serially and separately diluted 3-fold in DMSO to obtain a total of eight or twelve concentrations. Then the test compounds at each concentration (120 nL of each) were transferred by Mosquito into white Proxiplate plus 384-well microplate (PerkinElmer). Solutions (6 μL) of 60 nM wild type MLL1 four-member complex (MLL1-4C) and 5 μM SAM in the reaction buffer (20 mM Tris-HCl, pH8.0, 0.01% Tween 20, 1 mM DTT, 10 mM MgCl2, 0.01% BSA) were added to the wells that were then incubated with the test compound for 20 min. A 6 μL solution of 20 μM of the peptide substrate H3K4me0 (histone H3[1-21]-Biotin) in the reaction buffer was added to initiate each reaction. The final components in the reaction solution include 30 nM MLL1-4C, 2.5 μM SAM, and 10 μM H3K4me0 with varying concentration of the compounds. A positive control consisted of 30 nM MLL1-4C, 2.5 μM SAM, and 10 μM substrate in the absence of the test compound, and a negative control consisted of 2.5 μM SAM, and 10 μM substrate only. Each reaction was incubated at rt for 120 min, then stopped by addition of 3 μL per of quench solution (2.5% TFA with 320 nM d4-SAH). The reaction mixture was centrifuged (Eppendorf centrifuge 5810, Rotor A-4-62) for 2 min at 2000 rmp. The SAH production from the enzymatic assays were monitored by LC-MS/MS on an API 4000 triple quadrupole mass spec with Turbolon Spray (Applied Biosystem) coupled with Prominenece UFLC (Shimazu). The level of SAH production were then normalized based on the values coming from the positive and negative controls to give percent enzyme activities. The data were then fit to a dose response equation using the program Helios (Novartis) to get the IC50 values of the test compound. Helios is a Novartis in-house assay data analysis software using the methods described by Normolle, D. P., Statistics in Medicine, 12:2025-2042 (1993); Formenko, I. et al., Computer Methods and programs in Biomedicine, 82, 31-37 (2006); Sebaugh, J. L., Pharmaceutical Statistics, 10:128-134 (2011); Kelly, C. et al., Biometrics, 46(4):1071-1085 (1990); and Kahm, M, et al., Journal of Statistical Software, 33(7):(2010) (grofit: Fitting Biological Growth Curves with R, pages 1-21, available at http://www.jstatsoft.org/).

The next test concerns MV4-11 cells. In words: MV4-11 6-day cell growth CTG (CellTiter-Glo) assay. It counts as cell-based. As to conditions: Homo sapiens, MV4-11, 144 h, 6 days, read-out: (c) MLL/WDR5 cell proliferation assay//MLL/WDR5 proliferation MV4:11 Qualified AC50. As for the experimental part:
MV4-11 6-Day Cell Growth CTG (CellTiter-Glo) Assay
Acute myeloid leukemia cell MV4-11 (ATCC® CRL-9591™) was cultured with RPMI 1640 medium (Thermo Fisher Scientific, cat #11875) supplemented with 10% FBS (Thermo Fisher Scientific, cat #10099141) in humidified incubator at 37° C., 5% CO2. To assess the effect of WDR5 inhibitor on cell growth, the compound of the present invention was dissolved in DMSO and serially diluted at 1:3 for 12 points starting from 10 mM then 200 nL for the replicate of each dose per well was dispensed to Viewplate-384 Black (Perkin Elmer). Exponentially growing MV4-11 cells were seeded at the density of 300 cells per well in 40 μL to the plate, so the final compound working concentration starts from 50 μM. After 6 days, 40 μL CellTiter-Glo (Promega, cat #G7573) was added into the cell culture well and luminescence was read with Envision (Perkin Elmer) to determine the viable cells. The percentage inhibition was calculated against the samples treated with DMSO only and the data were used for dose response curve fitting in GraphPad Prism to get the IC50 of representative compound of present invention, which reflects the inhibition of WDR5 activity in the proliferation of MV4;11.
A general note: ATP-based viability assays read luminescence as a measure of living cells.

A further test deals with WDR5 (Homo sapiens, UniProt P61964). In words: WDR5 HTRF binding assay. The following applies: read-out: (a) WDR5 HTRF Pep Val v.1[Inhibitor/IC50]Qualified AC50. As for the experimental part: The compounds were serially diluted 3-fold in DMSO to obtain a total of twelve concentrations. Then the test compounds at each concentration (90 nL of each) were transferred by Mosquito in the white Proxiplate plus 384-well microplate (Perkin Elmer). The assay mixture (typical 9 μL) containing 6 nM WDR5 and 20 nM Biotin-MLL1 WIN peptide (3762-3773) in the assay buffer (25 mM Hepes, pH7.5, 0.05% Tween 20, 2 mM DTT, 100 mM NaCl, 0.1% BSA) were added to the wells. For counter assay, a 9 μL solution of 15 nM Biotin-PEG-His peptide was added into the wells. After 20 min incubation at rt, a 3 μL detection solution containing 14 μg/ml Phycolink Streptavidin Allophycocyanin (Prozyme), 2 nM Anti-His-Eu (PerkinElmer) in assay buffer was then added. After 1 hr incubation, the plate was read in the EnVision reader (PerkinElmer) using the HTRF protocol (The protocol set-up: Lance/Delfia dual enhancer mirror, excitation at 320 UV2 (TRF), emission at APC665, 2nd emission at EuropiμM 615). HTRF signals were normalized based on the reading coming from the positive (maximum signal control) and negative controls (minimum signal control) to give percentage of activities left. The data were then fit to a dose response equation using the program Helios (Novartis) to get the IC50 values. Helios is a Novartis in-house assay data analysis software using the methods described by Normolle, D. P., Statistics in Medicine, 12:2025-2042 (1993); Formenko, I. et al., Computer Methods and programs in Biomedicine, 82, 31-37 (2006); Sebaugh, J. L., Pharmaceutical Statistics, 10:128-134 (2011); Kelly, C. et al., Biometrics, 46(4):1071-1085 (1990); and Kahm, M, et al., Journal of Statistical Software, 33(7):(2010) (grofit: Fitting Biological Growth Curves with R, pages 1-21, available at http://www.jstatsoft.org/).

Turning to `CCOc1cc([C@H](C)N2CCc3c(CN4CCOCC4)cc(Cn4ccnc4NC)cc3C2=O)ncc1Cl` [Example 23, (S)-2-(1-(5-chloro-4-ethoxypyridin-2-yl)ethyl)-7-((2-(methylamino)-1H-imidazol-1-yl)methyl)-5-(morpholinomethyl)-3,4-dihydroisoquinolin-1(2H)-one], the AC50 (in test [1]; in the test with MV4-11 cells) was 10 to 1000 nM each time. The IC50 on WDR5 lay within 10 to 1000 nM.
For the compound `CCOc1cc([C@H](C)N2CCc3c(CN4CC(F)C4)cc(Cn4ccnc4NC)cc3C2=O)ncc1C#N` [Example 28, (S)-4-ethoxy-6-(1-(5-((3-fluoroazetidin-1-yl)methyl)-7-((2-(methylamino)-1H-imidazol-1-yl)methyl)-1-oxo-3,4-dihydroisoquinolin-2(1H)-yl)ethyl)nicotinonitrile], the AC50 (in test [1]; in the test with MV4-11 cells) was 10 to 1000 nM in each case. At WDR5, the IC50 was in the range of 10 to 1000 nM.
As to `CCOc1cc([C@H](C)N2CCc3c(cc(CCN(C)CC)cc3-c3ccc(F)nc3C)C2=O)ncc1C#N` [Example 111, (S)-4-ethoxy-6-(1-(7-(2-(ethyl(methyl)amino)ethyl)-5-(6-fluoro-2-methylpyridin-3-yl)-1-oxo-3,4-dihydroisoquinolin-2(1H)-yl)ethyl)nicotinonitrile], the AC50 (in test [1]; in the test on MV4-11 cells) was 10 to 1000 nM each time. Moreover, the IC50 at WDR5 is less than 10 nM.
Turning to `CNc1nccn1Cc1cc(CN2CC(F)(F)C2)c2c(c1)C(=O)N([C@@H](C)c1cc(OC)c(F)cn1)CC2` [Example 48, (S)-5-((3,3-difluoroazetidin-1-yl)methyl)-2-(1-(5-fluoro-4-methoxypyridin-2-yl)ethyl)-7-((2-(methylamino)-1H-imidazol-1-yl)methyl)-3,4-dihydroisoquinolin-1(2H)-one], the AC50 (in test [1]; in the test with MV4-11 cells) was 10 to 1000 nM throughout. For the same compound, the IC50 at WDR5 was 10 to 1000 nM.
Consider `CCOc1cc([C@H](C)N2CCc3c(cc(CCN(C)CC)cc3-c3cc(N)cnc3C)C2=O)ncc1C#N` [Example 187, (S)-6-(1-(5-(5-amino-2-methylpyridin-3-yl)-7-(2-(ethyl(methyl)amino)ethyl)-1-oxo-3,4-dihydroisoquinolin-2(1H)-yl)ethyl)-4-ethoxynicotinonitrile], for which the AC50 (in test [1]; with MV4-11 cells) was 10 to 1000 nM throughout. For the same compound, on WDR5, the IC50 is less than 10 nM.
For the compound `CCOc1cc(CN2CCc3c(cc(CCN(C)CC)cc3-c3cn(C)c(=O)cc3C)C2=O)ncc1C#N` [Example 135, 6-((5-(1,4-dimethyl-6-oxo-1,6-dihydropyridin-3-yl)-7-(2-(ethyl(methyl)amino)ethyl)-1-oxo-3,4-dihydroisoquinolin-2(1H)-yl)methyl)-4-ethoxynicotinonitrile], the AC50 (in test [1]; in the test with MV4-11 cells) was 10 to 1000 nM throughout. Also, the IC50 at WDR5 was less than 10 nM.
With `CCOc1cc(C(C)N2CCc3c(cc(CCN(C)CC)cc3C(C)(O)C(F)(F)F)C2=O)ncc1C#N` (stereo not drawn) [Example 304, 4-ethoxy-6-(1-(7-(2-(ethyl(methyl)amino)ethyl)-1-oxo-5-(1,1,1-trifluoro-2-hydroxypropan-2-yl)-3,4-dihydroisoquinolin-2(1H)-yl)ethyl)nicotinonitrile], the AC50 in test [1] fell in the range of 10 to 1000 nM; in the test with MV4-11 cells, 1000 to 25000 nM. Besides, the IC50 at WDR5 lay within 10 to 1000 nM.
Consider `CCOc1cc(C(C)N2CCc3c(cc(CCN(C)CC)cc3C(O)C(C)C(F)(F)F)C2=O)ncc1C#N` (stereo not drawn) [Example 258, 4-ethoxy-6-(1-(7-(2-(ethyl(methyl)amino)ethyl)-1-oxo-5-(3,3,3-trifluoro-1-hydroxy-2-methylpropyl)-3,4-dihydroisoquinolin-2(1H)-yl)ethyl)nicotinonitrile], for which the AC50 (in test [1]; in the test with MV4-11 cells) was 10 to 1000 nM each time. On WDR5, the IC50 was less than 10 nM.
In the case of `CNc1nccn1Cc1cc2c(c(C(F)F)c1)CCN([C@@H](C)c1cnc(F)c(OC)c1)C2=O` [Example 93, (S)-5-(difluoromethyl)-2-(1-(6-fluoro-5-methoxypyridin-3-yl)ethyl)-7-((2-(methylamino)-1H-imidazol-1-yl)methyl)-3,4-dihydroisoquinolin-1(2H)-one], the AC50 (in test [1]; in the test with MV4-11 cells) was 10 to 1000 nM each time. The IC50 on WDR5 lay in the range of 10 to 1000 nM.
Regarding `CCOc1cc([C@H](C)N2CCc3c(CN4CC[C@H](F)C4)cc(Cn4ccnc4NC)cc3C2=O)ncc1F` [Example 37, 2-((S)-1-(4-ethoxy-5-fluoropyridin-2-yl)ethyl)-5-(((S)-3-fluoropyrrolidin-1-yl)methyl)-7-((2-(methylamino)-1H-imidazol-1-yl)methyl)-3,4-dihydroisoquinolin-1(2H)-one], the AC50 (in test [1]; with MV4-11 cells) was 10 to 1000 nM in each case. Also, at WDR5, the IC50 was 10 to 1000 nM.
For the compound `CCOc1cc([C@H](C)N2CCc3c(cc(CCN(C)CCO)cc3-c3cc(N)cnc3C(F)(F)F)C2=O)ncc1C#N` [Example 230], the AC50 (in test [1]; in the test on MV4-11 cells) was 10 to 1000 nM throughout. On WDR5, the IC50 was less than 10 nM.
Take `CCOc1cc([C@H](C)N2CCc3c(CN4CC[C@@H](F)C4)cc(Cn4ccnc4NC)cc3C2=O)ncc1C#N` [Example 11, 4-ethoxy-6-((S)-1-(5-(((R)-3-fluoropyrrolidin-1-yl)methyl)-7-((2-(methylamino)-1H-imidazol-1-yl)methyl)-1-oxo-3,4-dihydroisoquinolin-2(1H)-yl)ethyl)nicotinonitrile]: the AC50 (in test [1]; in the test on MV4-11 cells) was 10 to 1000 nM throughout. On WDR5, the IC50 is less than 10 nM.
With `CCN(C)CCc1cc2c(c(-c3cn(C)nc3C)c1)CCN([C@@H](C)c1cnc(F)c(OC)c1)C2=O` [Example 123, (S)-5-(1,3-dimethyl-1H-pyrazol-4-yl)-7-(2-(ethyl(methyl)amino)ethyl)-2-(1-(6-fluoro-5-methoxypyridin-3-yl)ethyl)-3,4-dihydroisoquinolin-1(2H)-one], the AC50 (in test [1]; with MV4-11 cells) was 10 to 1000 nM each time. At WDR5, the IC50 was less than 10 nM.

Values taken from patent US20220289732A1, “HETEROCYCLIC WDR5 INHIBITORS AS ANTI-CANCER COMPOUNDS” (NOVARTIS AG, priority 2019, published 2022).
